Measurements published in article PMC3117126 (Journal of medicinal chemistry, 2011).
Where a name gives a salt, the structure may show the parent alone.

Key:
human P2Y2 receptor = human P2Y2 receptor (Homo sapiens, UniProt P41231); experiment: PLC activation; type: cell-based; settings: for effect at 10 µM, hP2Y2: printed in EC50 column, NE = no effect at 10 µM
[1] = Chemical stability: hydrolysis at 37°C and pH 1.5, HPLC; type: physicochemical; settings: pH 1.5, 0.2 mg/mL, compared with 1 (UTP)
human P2Y4 receptor [2] = molecular target: T1, human P2Y4 receptor (Homo sapiens, UniProt P51582); experiment: PLC activation; type: cell-based; settings: for selectivity for human P2Y4 over P2Y2 and P2Y6 receptors: over both P2Y2 and P2Y6
human P2Y4 receptor [3] = molecular target: T1, human P2Y4 receptor; settings: cited from earlier work

T1 sequence (P51582 whole entry): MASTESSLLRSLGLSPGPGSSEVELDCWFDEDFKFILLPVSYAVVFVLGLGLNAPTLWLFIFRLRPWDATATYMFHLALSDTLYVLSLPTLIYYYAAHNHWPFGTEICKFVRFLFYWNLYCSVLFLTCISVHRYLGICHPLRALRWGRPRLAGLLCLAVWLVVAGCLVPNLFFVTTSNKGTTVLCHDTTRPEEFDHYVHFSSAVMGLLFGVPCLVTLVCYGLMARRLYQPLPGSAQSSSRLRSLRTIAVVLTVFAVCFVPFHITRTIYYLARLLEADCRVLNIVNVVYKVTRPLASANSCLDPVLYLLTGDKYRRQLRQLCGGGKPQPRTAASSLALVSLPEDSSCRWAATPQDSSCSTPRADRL
Sequence of human P2Y2 receptor (P41231 whole entry): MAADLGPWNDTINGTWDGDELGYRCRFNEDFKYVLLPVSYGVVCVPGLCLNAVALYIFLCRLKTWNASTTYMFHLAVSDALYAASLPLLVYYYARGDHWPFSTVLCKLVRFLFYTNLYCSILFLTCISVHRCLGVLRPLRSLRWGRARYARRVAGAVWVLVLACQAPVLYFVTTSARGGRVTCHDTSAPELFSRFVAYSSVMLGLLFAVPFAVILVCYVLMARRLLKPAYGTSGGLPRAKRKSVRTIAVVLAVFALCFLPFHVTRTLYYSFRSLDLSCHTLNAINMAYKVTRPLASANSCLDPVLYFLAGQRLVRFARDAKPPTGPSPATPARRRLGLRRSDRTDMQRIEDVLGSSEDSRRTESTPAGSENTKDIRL

With O=c1ccn([C@@H]2O[C@H](COP(=O)(O)OP(=O)(O)OP(=O)(O)OP(=O)(O)O[C@H]3OC[C@@H](O)[C@H](O)[C@H]3O)[C@@H](O)[C@H]2O)c(=O)[nH]1 [Compound 30, Uridine-5′-xylose-1′-tetraphosphate triethylammonium salt] as the compound, how does the “reduction in potency at P2Y2 receptor relative to 8” value (human P2Y2 receptor; fold less potent than 8) read?
The value was 9 fold.

With O=c1ccn([C@@H]2O[C@H](COP(=O)(O)OP(=O)(O)OP(=O)(O)OP(=O)(O)O[C@H]3O[C@H](CO)[C@@H](O)[C@H](O)[C@H]3O)[C@@H](O)[C@H]2O)c(=O)[nH]1 [Compound 8, Up4-[1]glucose, reference compound] as the compound, how does the “stability at pH 1.5” value [1] read?
The value was “less stable at pH 1.5 than 1”.

For COc1ccc(OP(=O)(O)OP(=O)(O)OP(=O)(O)OP(=O)(O)OC[C@H]2O[C@@H](n3ccc(=O)[nH]c3=O)[C@H](O)[C@@H]2O)cc1 [Compound 22, Uridine-5′-(4-methoxyphenyl)-tetraphosphate triethylammonium salt], which “effect at 10 µM, hP2Y2” value (human P2Y2 receptor) is on record?
Its value is at most 50% at 10 µM.

For O=c1[nH]/c(=N\OCCc2ccccc2)ccn1[C@@H]1O[C@H](COP(=O)(O)OP(=O)(O)OP(=O)(O)O)[C@@H](O)[C@H]1O [Compound 15, N^4-Phenylethoxycytidine-5′-triphosphate triethylammonium salt], which “selectivity for human P2Y4 over P2Y2 and P2Y6 receptors” value (human P2Y4 receptor [2]) is on record?
Its value is at least 10 fold.

Which “increase in P2Y4 receptor potency relative to Up4-[1]glucose 8” value (human P2Y4 receptor [2]; compared with 8) does the source give for O=c1ccn([C@@H]2O[C@H](COP(=O)(O)OP(=O)(O)OP(=O)(O)OP(=O)(O)O[C@H]3O[C@H](CO)[C@@H](O)[C@@H](O)[C@H]3O)[C@@H](O)[C@H]2O)c(=O)[nH]1 [Compound 28, Uridine-5′-allose-1′-tetraphosphate triethylammonium salt] here?
Its value is 11 fold.

Which “effect at 10 µM, hP2Y2” value (human P2Y2 receptor) does the source give for COc1cccc(OP(=O)(O)OP(=O)(O)OP(=O)(O)OP(=O)(O)OC[C@H]2O[C@@H](n3ccc(=O)[nH]c3=O)[C@H](O)[C@@H]2O)c1 [Compound 23, Uridine-5′-(3-methoxyphenyl)-tetraphosphate triethylammonium salt] here?
The value was at most 50% at 10 µM.

With O=c1[nH]/c(=N\OCCCc2ccccc2)ccn1[C@@H]1O[C@H](COP(=O)(O)OP(=O)(O)OP(=O)(O)O)[C@@H](O)[C@H]1O [Compound 16, N^4-Phenylpropoxycytidine-5′-triphosphate triethylammonium salt] as the compound, how does the “selectivity for human P2Y4 over P2Y2 and P2Y6 receptors” value (human P2Y4 receptor [2]) read?
The value was at least 10 fold.

With O=c1ccn([C@@H]2O[C@H](COP(=O)(O)OP(=O)(O)OP(=O)(O)OP(=O)(O)Oc3ccc([N+](=O)[O-])cc3)[C@@H](O)[C@H]2O)c(=O)[nH]1 [Compound 24, Uridine-5′-(4-nitrophenyl)-tetraphosphate triethylammonium salt] as the compound, how does the “effect at 10 µM, hP2Y2” value (human P2Y2 receptor) read?
The value was “abolished activity”.

For [N-]=[N+]=N[C@@H]1[C@H](O)[C@@H](COP(=O)(O)OP(=O)(O)OP(=O)(O)O)O[C@H]1n1ccc(=O)[nH]c1=O [Compound 3], which “selectivity for the P2Y4 receptor in comparison to the P2Y2 receptor” value (human P2Y4 receptor [3]) is on record?
Its value is 5 fold.

Which results are given for O=c1ccn([C@@H]2O[C@H](COP(=O)(O)OP(=O)(O)OP(=O)(O)OP(=O)(O)O[C@H]3O[C@H](CO)[C@@H](O)[C@H](F)[C@H]3O)[C@@H](O)[C@H]2O)c(=O)[nH]1 [Compound 34, P^1-(Uridine-5′-)P^4-(3′-deoxy-3′-fluoroglucose-1′-)tetraphosphate triethylammonium salt]?
selectivity for human P2Y4 over P2Y2 and P2Y6 receptors (human P2Y4 receptor [2]): ≥ 10 fold; stability at pH 1.5 [1]: much more labile

For O=c1ccn([C@@H]2O[C@H](COP(=O)(O)OP(=O)(O)C(Cl)(Cl)P(=O)(O)OP(=O)(O)O[C@H]3O[C@H](CO)[C@@H](O)[C@H](O)[C@H]3O)[C@@H](O)[C@H]2O)c(=O)[nH]1 [Compound 26, Uridine-5′-glucose-1′-β,γ-dichloromethylene tetraphosphate triethylammonium salt], which “effect at 10 µM, hP2Y2” value (human P2Y2 receptor) is on record?
Its value is at most 50% at 10 µM.
